Literature values as cited in publication PMC9899610 (Cancer Science, 2022).
Read-outs that look alike come from different tables or passages of the source.

System: patients with advanced or metastatic cholangiocarcinoma; urothelial carcinoma
Conditions: cited from earlier work
[1] = patients with advanced or metastatic cholangiocarcinoma

Structure (SMILES)	Hyperphosphatemia, patients (patients with urothelial carcinoma) [%]	Patients who discontinued treatment because of retinal detachment (phase II study) [%]	Retinal AEs requiring dose interruption or treatment discontinuation	Hyperphosphatemia, patients [1] [%]
COc1cc(OC)cc(N(CCNC(C)C)c2ccc3ncc(-c4cnn(C)c4)nc3c2)c1 [erdafitinib]	77	13		
CCN1CCN(c2ccc(Nc3cc(N(C)C(=O)Nc4c(Cl)c(OC)cc(OC)c4Cl)ncn3)cc2)CC1 [infigratinib]			two discontinuations	77
CCN1C(=O)N(c2c(F)c(OC)cc(OC)c2F)Cc2cnc3[nH]c(CN4CCOCC4)cc3c21 [pemigatinib]			one dose interruption	60
